From patent US9751887B2, “Imidazo[1,2-b]pyridazine derivatives as kinase inhibitors” (Daiichi Sankyo Company, Limited, priority 2012, dated 2017)

Assays:
ROS1 [1] = biological target: T1, ROS1 (Homo sapiens, UniProt P08922); experiment: ROS1 autophosphorylation inhibitory activity evaluation (ADP-Glo); type: biochemical; settings: 200 nM inactive ROS1, ATP 1 mM, 25° C. 1.5 hours, ADP generated, four separate measurements
T1 construct: purchased Carna Biosciences 08-163
Method in brief: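 IC50 was derived by curve fitting of ADP output measured with ADP-Glo reagents. The output reflects ROS1 self-phosphorylation over 1.5 hours at 25° C. Buffer was HEPES pH 7.5 with MgCl2, Brij-58 and DTT, and ATP was 1 mM final.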

[2] = system: HCC78 cells having ROS1 fusion gene; experiment: HCC78 cell growth assay (CellTiter-Glo); type: cell-based; settings: Homo sapiens, HCC78, 72 h, 72 hours culture, 2% FBS medium, luminescence, four separate measurements; read-out: growth inhibitory effect on HCC78 cells having ROS1 fusion gene IC50
ROS1 [3] = biological target: T1, ROS1; experiment: ROS1 kinase inhibitory activity evaluation (mobility shift, EZ Reader II); type: biochemical; settings: ROS1 25 pg/μL, FL-Peptide 22 substrate, three separate measurements
Description: Next, a substrate reaction solution was prepared. […] Then, the reaction stop solution was added thereto at a concentration of 40 μL/well. Substrate phosphorylation intensity was measured using EZ Reader II (Caliper Life Sciences).

T1 sequence (P08922 28-2347): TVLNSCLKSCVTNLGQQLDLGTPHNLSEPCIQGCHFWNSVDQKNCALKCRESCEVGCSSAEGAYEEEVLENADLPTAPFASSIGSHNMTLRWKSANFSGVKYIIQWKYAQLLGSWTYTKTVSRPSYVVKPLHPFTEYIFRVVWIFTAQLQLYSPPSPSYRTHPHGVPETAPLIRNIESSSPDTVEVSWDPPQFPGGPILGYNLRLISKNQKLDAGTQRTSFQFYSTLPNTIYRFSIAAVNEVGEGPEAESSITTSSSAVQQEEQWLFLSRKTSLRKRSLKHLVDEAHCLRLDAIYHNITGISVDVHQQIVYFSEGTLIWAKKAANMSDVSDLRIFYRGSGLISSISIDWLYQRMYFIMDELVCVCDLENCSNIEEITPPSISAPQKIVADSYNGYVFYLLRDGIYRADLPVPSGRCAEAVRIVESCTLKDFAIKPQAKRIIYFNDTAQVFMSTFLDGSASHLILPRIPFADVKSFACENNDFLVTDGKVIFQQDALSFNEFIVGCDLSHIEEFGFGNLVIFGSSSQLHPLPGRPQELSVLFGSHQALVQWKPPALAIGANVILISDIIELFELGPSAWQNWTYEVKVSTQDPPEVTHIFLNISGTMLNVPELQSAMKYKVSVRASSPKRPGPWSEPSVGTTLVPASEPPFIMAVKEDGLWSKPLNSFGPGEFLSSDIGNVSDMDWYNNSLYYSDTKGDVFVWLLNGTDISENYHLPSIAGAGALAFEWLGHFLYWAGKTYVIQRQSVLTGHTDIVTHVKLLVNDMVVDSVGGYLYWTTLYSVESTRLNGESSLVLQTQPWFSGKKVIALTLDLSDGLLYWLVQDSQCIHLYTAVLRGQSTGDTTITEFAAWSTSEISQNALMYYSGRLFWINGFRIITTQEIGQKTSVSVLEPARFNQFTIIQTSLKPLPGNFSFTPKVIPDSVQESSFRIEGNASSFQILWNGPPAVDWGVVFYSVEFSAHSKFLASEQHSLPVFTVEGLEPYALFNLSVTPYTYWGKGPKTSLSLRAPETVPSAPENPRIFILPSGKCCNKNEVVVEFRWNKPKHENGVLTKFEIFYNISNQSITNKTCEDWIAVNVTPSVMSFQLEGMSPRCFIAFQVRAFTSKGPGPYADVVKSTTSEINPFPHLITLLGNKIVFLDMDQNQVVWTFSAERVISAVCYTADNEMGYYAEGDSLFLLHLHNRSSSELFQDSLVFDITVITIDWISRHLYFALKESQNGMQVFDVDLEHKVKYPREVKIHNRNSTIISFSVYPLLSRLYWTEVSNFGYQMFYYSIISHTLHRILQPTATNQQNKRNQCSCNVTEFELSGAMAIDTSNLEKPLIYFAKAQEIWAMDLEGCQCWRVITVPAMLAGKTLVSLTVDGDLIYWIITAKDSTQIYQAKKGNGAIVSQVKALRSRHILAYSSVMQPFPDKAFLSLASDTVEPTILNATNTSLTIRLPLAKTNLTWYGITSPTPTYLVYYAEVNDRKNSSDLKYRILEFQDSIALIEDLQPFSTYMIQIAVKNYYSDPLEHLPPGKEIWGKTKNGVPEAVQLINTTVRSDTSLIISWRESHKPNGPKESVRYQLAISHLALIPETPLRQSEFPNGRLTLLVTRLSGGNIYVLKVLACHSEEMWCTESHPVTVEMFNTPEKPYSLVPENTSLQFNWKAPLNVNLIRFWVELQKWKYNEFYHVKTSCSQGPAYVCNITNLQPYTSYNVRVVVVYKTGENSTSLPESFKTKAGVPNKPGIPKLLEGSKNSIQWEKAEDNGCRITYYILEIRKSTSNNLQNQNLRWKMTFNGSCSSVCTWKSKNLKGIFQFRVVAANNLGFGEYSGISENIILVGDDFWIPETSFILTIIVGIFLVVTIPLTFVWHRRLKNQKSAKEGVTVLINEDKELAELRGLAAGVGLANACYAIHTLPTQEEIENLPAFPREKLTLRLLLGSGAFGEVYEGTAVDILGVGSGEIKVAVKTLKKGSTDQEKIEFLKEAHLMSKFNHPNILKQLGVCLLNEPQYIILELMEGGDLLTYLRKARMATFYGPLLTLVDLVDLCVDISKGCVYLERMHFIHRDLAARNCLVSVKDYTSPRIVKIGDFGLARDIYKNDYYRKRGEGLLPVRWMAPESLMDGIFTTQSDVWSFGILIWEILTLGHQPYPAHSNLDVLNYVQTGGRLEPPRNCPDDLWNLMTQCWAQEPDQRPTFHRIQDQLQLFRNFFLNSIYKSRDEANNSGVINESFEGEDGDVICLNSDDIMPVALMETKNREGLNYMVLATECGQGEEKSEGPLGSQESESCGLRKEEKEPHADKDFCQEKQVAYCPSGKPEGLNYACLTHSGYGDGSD

Compound | IC50 (ROS1 [1]) | IC50 [2] | IC50 (ROS1 [3])
CC(Oc1ccc2ncc(-c3ccc(N4C[C@@H](N)CC4=O)cc3)n2n1)c1cc(C#N)n(C)n1 (stereo partly drawn) [Example 116, 5-[1-[3-[4-[(4S)-4-Amino-2-oxopyrrolidin-1-yl]phenyl]imidazo[1,2-b]pyridazin-6-yl]oxyethyl]-2-methylpyrazole-3-carbonitrile] | 100 to 150 nM | 100 to 600 nM | 10 to 60 nM
CC(Oc1ccc2ncc(-c3ccc(N4C[C@@H](N)CC4=O)cc3)n2n1)c1cc(F)cnc1F (stereo partly drawn) [Example 106] | < 20 nM | < 20 nM | < 1 nM
C[C@@H](Nc1ccc2ncc(-c3cccc(OC[C@@H]4CCCN4)c3)n2n1)c1cccc(F)c1 [Example 50, N-[(1R)-1-(3-Fluorophenyl)ethyl]-3-[3-[[(2S)-pyrrolidin-2-yl]methoxy]phenyl]imidazo[1,2-b]pyridazin-6-amine] | < 20 nM | 20 to 100 nM | < 1 nM
c1ccc(CNc2ccc3ncc(-c4cccc(O[C@@H]5CCNC5)c4)n3n2)cc1 [Example 4, N-Benzyl-3-[3-[(3R)-pyrrolidin-3-yl]oxyphenyl]imidazo[1,2-b]pyridazin-6-amine] | 100 to 150 nM | 100 to 600 nM | 1 to 10 nM
CN(Cc1cccc(F)c1)c1ccc2ncc(-c3ccc(N4C[C@@H](N)CC4=O)c(C#N)c3)n2n1 [Example 131, 2-[(4S)-4-Amino-2-oxopyrrolidin-1-yl]-5-[6-[(3-fluorophenyl)methyl-methylamino]imidazo[1,2-b]pyridazin-3-yl]benzonitrile] | < 20 nM | 20 to 100 nM | 1 to 10 nM
C[C@@H](Nc1ccc2ncc(-c3ccc(SC[C@@H]4CCCN4)cc3)n2n1)c1ccccc1 [Example 20, N-[(1R)-1-Phenylethyl]-3-[4-[[(2S)-pyrrolidin-2-yl]methylsulfanyl]phenyl]imidazo[1,2-b]pyridazin-6-amine] | 20 to 100 nM | 100 to 600 nM | 1 to 10 nM
CN(Cc1cccc(F)c1)c1ccc2ncc(-c3ccc(N4CC(N)CC4=O)cc3)n2n1 (stereo not drawn) [Example 82, 4-Amino-1-[4-[6-[(3-fluorophenyl)methyl-methylamino]imidazo[1,2-b]pyridazin-3-yl]phenyl]pyrrolidin-2-one] | < 20 nM | 20 to 100 nM | < 1 nM
C[C@@H](Nc1ccc2ncc(-c3cccc(OC[C@@H]4CCN4)c3)n2n1)c1cccc(F)c1 [Example 57, 3-[3-[[(2S)-Azetidin-2-yl]methoxy]phenyl]-N-[(1R)-1-(3-fluorophenyl)ethyl]imidazo[1,2-b]pyridazin-6-amine] | 20 to 100 nM | 20 to 100 nM | 1 to 10 nM
C[C@@H](Nc1ccc2ncc(-c3cc(F)cc(OC[C@@H]4CCN4)c3)n2n1)c1cccc(F)c1 [Example 62, 3-[3-[[(2S)-Azetidin-2-yl]methoxy]-5-fluoro-phenyl]-N-[(1R)-1-(3-fluorophenyl)ethyl]imidazo[1,2-b]pyridazin-6-amine] | 20 to 100 nM | 20 to 100 nM | < 1 nM
CN(Cc1cc(F)cc(F)c1)c1ccc2ncc(-c3ccc(N4C[C@@H](N)CC4=O)cc3)n2n1 [Example 120, (4S)-4-Amino-1-[4-[6-[(3,5-difluorophenyl)methyl-methylamino]imidazo[1,2-b]pyridazin-3-yl]phenyl]pyrrolidin-2-one] | < 20 nM | < 20 nM | < 1 nM
CN(Cc1cncc(F)c1)c1ccc2ncc(-c3ccc(N4CC(C)(N)CC4=O)cc3)n2n1 (stereo not drawn) [Example 119, 4-Amino-1-[4-[6-[(5-fluoro-3-pyridyl)methyl-methylamino]imidazo[1,2-b]pyridazin-3-yl]phenyl]-4-methylpyrrolidin-2-one] | < 20 nM | < 20 nM | 1 to 10 nM
C[C@@H](Oc1ccc2ncc(-c3ccc(N4C[C@@H](N)CC4=O)c(F)c3)n2n1)c1cncc(F)c1 [Example 109, (4S)-4-Amino-1-[2-fluoro-4-[6-[(1R)-1-(5-fluoro-3-pyridyl)ethoxy]imidazo[1,2-b]pyridazin-3-yl]phenyl]pyrrolidin-2-one] | 100 to 150 nM | 20 to 100 nM | 10 to 60 nM
